Experimental data published in patent publication US20180188270A1, “DIAGNOSTIC TEST FOR ALZHEIMER'S DISEASE BASED ON IDENTIFICATION OF A PROTEOLYTIC PATHWAY” (Health Research, Inc., priority 2015, published 2018).
Entries after “also recorded” stand apart in the source; their conditions may differ.

Legend:
[1] = test system: plasma hAβ1-42; assay: Effects of oral anticoagulants on plasma level of hAβ1-42 in mice; format: in vivo; conditions: for elevation of plasma levels of hAβ1-42: hAβ1-42 40 μg/kg, 6 h; for top dose tested is the maximal soluble dose: mouse, in vivo
Description: Blood was collected into K3 EDTA-containing tubes (Multivette 600 from Sarstedt). […] Rivaroxaban, dabigatran (dabigatran elexilate) and warfarin (warfarin sodium tablets) were from Bristol-Myers-Squibb, Combi-Blocks, and Advanced Chemblocks, respectively. Rivaroxaban was dissolved in 10% ethanol, 40% Solutol HS15 (Sigma) and 50% water and was administered to mice in 0.2 ml volume per 20 g body weight. Dabigatran was dissolved in 2% dimethyl sulfoxide in soy oil (Sigma) and was also administered to mice in 0.2 ml volume per 20 g body weight. Warfarin was dissolved in water and was administered to mice in 0.1 ml volume per 20 g body weight.

[2] = test system: FXII; assay: Binding to coagulation factor FXII (IP and IB); design: species or system human; conditions: 40 nM (hAβ1-42 200 nM) with FXII in PBS, 2 h
Description: Binding reactions were carried out in PBS in a total volume of 100 μl for 2 h at 37° C. To assess binding of hPEPD to HMWK, PK, FXI, FXII or a FXII mutant, hPEPD at 40 nM was incubated with a potential binding partner at 0.5 μM. All FXII mutants are His tagged, while FXII is either 6XHis-tagged (generated in our own laboratory) or not His-tagged (purchased commercially), depending on the experiment. To compare hPEPD and its mutants for binding to FXII, hPEPD or a mutant (40 nM) was incubated with FXII at 0.5 μM. Likewise, to assess binding of mSRC to FXII and its mutants, mSRC (40 nM) was incubated with FXII or a mutant at 0.5 μM. At the end of the incubation, 300 μl PBS containing a specific primary antibody was added to the incubation solution, which was further incubated at 4° C. overnight, followed by IP by protein G-agarose, and the precipitates were analyzed by IB. […] The precipitates were re-dissolved in 30 μl of 2% SDS, which were analyzed along with the supernatants by IB.

[3] = test system: FXII; assay: FXII activation, chromogenic assay; format: biochemical, human; conditions: FXII 0.97 nM, ZnCl2-containing PBS, RT
Description: Measurement of FXII activation. […] FXII activation was followed for 3 h at RT by monitoring the conversion of the chromogenic substrate at 405 nm by a microtiter plate reader.
Each value is mean±SD (n=3).

[4] = test system: plasma coagulation factors FXII, PK, HMWK, FXI, FIX, FX, FII, FI and FVII; assay: Changes in plasma coagulation factors in mice by IB (FI by ELISA); format: in vivo, mouse; conditions: WT mice, 6 h after i.p. treatment
Description: Animal studies. […] Male mice at 7-8 weeks of age were used, including wild type (WT) mice (C57BL/6), and mice deficient in FXII (C57BL/6-FXII^−/−) or FVII (C57BL/6-FVII^tTA/tTA). WT C57BL/6 mice were purchased from Taconic. C57BL/6-FXII^−/− mice and C57BL/6-FVII^tTA/tTA mice were bred in our own facility and genotyped. […] CCl4 was dissolved in corn oil, whereas all other substances were dissolved in PBS. The vehicle or the test substance was given to mice in 0.1 ml volume per 20 g body weight. Blood was collected from the mice at specific times by cardiac puncture at the time of sacrifice by carbon dioxide, and heart, liver and kidney were also collected from some of the mice. Blood was collected into K3 EDTA-containing tubes (Multivette 600 from Sarstedt), unless specified otherwise. All blood samples were promptly centrifuged to obtain plasma samples.
The plates were washed three times with phosphate buffered saline tween-20 (PBST) and the coated wells were blocked by incubation with 200 μl/well of 1% BSA in PBS for at least 2 h at RT. […] The plates were washed again with PBST, and each well was incubated with a goat anti-rabbit IgG-HRP conjugate (100 μl) for 1 h at RT. After yet another round of wash with PBST, each well was incubated with 100 μl of HRP substrate 3,3′,5,5′-tetramethylbenzedine (Cell Signaling, 7004). Upon adequate color development, 100 μl of stop solution (Cell Signaling, 7002) was added to each well, and absorbance at 450 nm was promptly recorded by a microtiter plate reader. Plasma FI concentration was determined using an assay kit (400-374-130050) from GenWay Biotech, following the manufacturer's instruction.
IB. Tissue samples were mixed with RIPA buffer (25 mM Tris-HCl, pH 7.6, 150 mM NaCl, 1% Nonidet P-40, 1% sodium deoxycholate, 0.1% SDS), supplemented with 2 mM phenylmethanesulfonyl fluoride, a proteinase inhibitor mix (Roche Applied Science) and phosphatase inhibitor Cocktail 2 (Sigma-Aldrich). Tissue samples were stroked in a Dounce homogenizer, and the homogenates were cleared by centrifugation at 12,000×g for 15 min at 4° C. Protein concentrations in all samples were measured by the BCA assay kit. Plasma samples were used without further processing (20 μl per sample). Each sample was mixed with 4× loading dye, heated for 5 min at 95° C. and then resolved by SDS-PAGE (8-12.5%). […] The proteins were transferred to polyvinylidene fluoride membrane, probed with specific antibodies and detected using the ECL Plus Kit (Amersham) or the SuperSignal West Pico Kit (Thermo Scientific).

**Q.** Which results are given for CC(=O)CC(c1ccccc1)c1c(O)c2ccccc2oc1=O (centres unmarked) [warfarin]?
**A.** elevation of plasma levels of hAβ1-42 ([1]; warfarin 1 mg/kg oral once daily 5 days): 33.2 fold; elevation of plasma levels of hAβ1-42 ([1]; warfarin 3 mg/kg oral once daily 5 days): 42.4 fold

**Q.** With [H]/N=C(/N)c1ccc(NCc2nc3cc(C(=O)N(CCC(=O)O)c4ccccn4)ccc3n2C)cc1 [dabigatran] as the molecule, how does the “elevation of plasma levels of hAβ1-42” value ([1]; dabigatran 22.5 mg/kg oral once daily 5 days) read?
**A.** Its value is 14.1 fold.

**Q.** What about the “elevation of plasma levels of hAβ1-42” value ([1]; dabigatran 45 mg/kg oral once daily 5 days) of the same molecule?
**A.** Its value is 21.3 fold.

**Q.** What about the “top dose tested is the maximal soluble dose” value [1] of the same molecule?
**A.** Its value is “maximal soluble doses”.

**Q.** With O=C(NC[C@H]1CN(c2ccc(N3CCOCC3=O)cc2)C(=O)O1)c1ccc(Cl)s1 [rivaroxaban] as the molecule, how does the “relative effectiveness in elevating plasma hAβ1-42 level” value ([1]; comparison among warfarin, rivaroxaban, dabigatran and with EP) read?
**A.** Its value is “the most effective; also recorded: not as effective as EP”.

**Q.** And the “top dose tested is the maximal soluble dose” value [1]?
**A.** The value was “maximal soluble doses”.

**Q.** And the “elevation of plasma levels of hAβ1-42” value ([1]; rivaroxaban 10 mg/kg oral once daily 5 days)?
**A.** The value was 47.2 fold.

**Q.** What about the “elevation of plasma levels of hAβ1-42” value ([1]; rivaroxaban 20 mg/kg oral once daily 5 days) of the same molecule?
**A.** The value was 55.5 fold.

B1: 1M-265Rdel-hPEPD: hPEPD deletion mutant, cannot form homodimers (protein, UniProt P12955 266-493, looked up, fragment)
chain: TIQNGDMCLFDMGGEYYCFASDITCSFPANGKFTADQKAVYEAVLRSSRAVMGAMKPGVWWPDMHRLADRIHLEELAHMGILSGSVDAMVQAHLGAVFMPHGLGHFLGIDVHDVGGYPEGVERIDEPGLRSLRTARHLQPGMVLTVEPGIYFIDHLLDEALADPARASFLNREVLQRFRGFGGVRIEEDVVVTDSGIELLTCVPRTVEEIEACMAGCDKAFTPFSGPK
**Q.** How did the “binding to FXII” value [2] turn out when B1 was run?
**A.** The value was “almost indistinguishable from hPEPD in FXII binding”.

B2: 266T-493Kdel-hPEPD: hPEPD deletion mutant, cannot form homodimers (protein, UniProt P12955 1-265, looked up, fragment)
chain: MAAATGPSFWLGNETLKVPLALFALNRQRLCERLRKNPAVQAGSIVVLQGGEETQRYCTDTGVLFRQESFFHWAFGVTEPGCYGVIDVDTGKSTLFVPRLPASHATWMGKIHSKEHFKEKYAVDDVQYVDEIASVLTSQKPSVLLTLRGVNTDSGSVCREASFDGISKFEVNNTILHPEIVECRVFKTDMELEVLRYTNKISSEAHREVMKAVKVGMKEYELESLFEHYCYSRGGMRHSSYTCICGSGENSAVLHYGHAGAPNDR
**Q.** For B2, which “binding to FXII” value [2] is on record?
**A.** Its value is “neither 185V-493Kdel-hPEPD nor 266T-493Kdel-hPEPD could bind to FXII”.

B3: 1M-228Hdel-hPEPD: hPEPD mutant named only once; probably 1M-265Rdel-hPEPD (protein, UniProt P12955 229-493, looked up, fragment)
chain: YCYSRGGMRHSSYTCICGSGENSAVLHYGHAGAPNDRTIQNGDMCLFDMGGEYYCFASDITCSFPANGKFTADQKAVYEAVLRSSRAVMGAMKPGVWWPDMHRLADRIHLEELAHMGILSGSVDAMVQAHLGAVFMPHGLGHFLGIDVHDVGGYPEGVERIDEPGLRSLRTARHLQPGMVLTVEPGIYFIDHLLDEALADPARASFLNREVLQRFRGFGGVRIEEDVVVTDSGIELLTCVPRTVEEIEACMAGCDKAFTPFSGPK
**Q.** With B3 as the molecule, how does the “FXII activation, activity relative to hPEPD” value [3] read?
**A.** Its value is “about 50%”.

B4: 185V-493Kdel-hPEPD: hPEPD deletion mutant, cannot form homodimers (protein, UniProt P12955 1-184, looked up, fragment)
chain: MAAATGPSFWLGNETLKVPLALFALNRQRLCERLRKNPAVQAGSIVVLQGGEETQRYCTDTGVLFRQESFFHWAFGVTEPGCYGVIDVDTGKSTLFVPRLPASHATWMGKIHSKEHFKEKYAVDDVQYVDEIASVLTSQKPSVLLTLRGVNTDSGSVCREASFDGISKFEVNNTILHPEIVECR
**Q.** With B4 as the molecule, how does the “binding to FXII” value [2] read?
**A.** Its value is “neither 185V-493Kdel-hPEPD nor 266T-493Kdel-hPEPD could bind to FXII”.

B5: mPEPD: mouse PEPD purified from mouse kidney by immunoaffinity purification, without any tag (protein, UniProt Q11136 2-493, looked up)
Xaa-Pro dipeptidase: ASTVRPSFSLGNETLKVPLALFALNRQRLCERLRKNGAVQAASAVVLQGGEEMQRYCTDTSIIFRQESFFHWAFGVVESGCYGVIDVDTGKSTLFVPRLPDSYATWMGKIHSKEYFKEKYAVDDVQYTDEIASVLTSRNPSVLLTLRGVNTDSGSVCREASFEGISKFNVNNTILHPEIVECRVFKTDMELEVLRYTNRISSEAHREVMKAVKVGMKEYEMESLFQHYCYSRGGMRHTSYTCICCSGENAAVLHYGHAGAPNDRTIKDGDICLFDMGGEYYCFASDITCSFPANGKFTEDQKAIYEAVLRSCRTVMSTMKPGVWWPDMHRLADRIHLEELARIGLLSGSVDAMLQVHLGAVFMPHGLGHFLGLDVHDVGGYPEGVERIDEPGLRSLRTARHLEPGMVLTVEPGIYFIDHLLDQALADPAQACFFNQEVLQRFRNFGGVRIEEDVVVTDSGMELLTCVPRTVEEIEACMAGCDKASVPFSGQK
**Q.** Which “activation/cleavage of plasma coagulation factors” value [4] does the source give for B5 here?
**A.** The value was “elicited the same response as did hPEPD”.
